Laboratory results taken from US20080311126A1, “Antisense Oligonucleotides Directed to Ribonucleotide Reducatase R2 and Uses Thereof in Combination Therapies for the Treatment of Cancer” (Genesense Technologies, Inc, priority 2004, published 2008).
Oligonucleotides are written 5' to 3', each unit as a sugar letter and its base; * is a phosphorothioate linkage, no mark a phosphodiester; rarer units and linkages stand in square brackets, end groups in braces. Plain capitals give the bases only. d = 2'-deoxy (DNA)

Legend:
Type in all cases: cell-based, human
Hela S3 cells = assay: Relative colony forming efficiency, lipofectin +/- oligonucleotide 4 hours; details: Hela S3 cervix carcinoma cells; averages of 2-8 determinations
Protocol: Colony forming efficiency was determined using standard protocols. Briefly, the cells were cultured for 24 hours at 37° C. in growth medium with 10% fetal bovine serum. The cells were washed in 5 ml phosphate buffered saline, pH 7.2, once prior to lipofectin +/−oligonucleotide treatment.
The test oligonucleotides were added to cell cultures in the presence of 2.5 μg of DOTMA/DOPE (Lipofectin; Life Technologies, Inc.) for four hours. The oligonucleotide was tested at 0.2 μM unless otherwise indicated. Controls were the cultures treated with lipofectin but without the oligonucleotide. After 4 hours the medium containing the oligonucleotide was removed and washed with 5 ml of growth medium. The cells were then cultured in growth medium containing 10% fetal bovine serum for seven to ten days. Surviving cells were visualized by methylene blue staining, and colonies were scored. In some experiments cell aliquots were removed from the culture and viability was determined using the trypan blue exclusion test. Results were analyzed as percent of surviving cells compared to control cells.
AS-II-336-20 was tested for the ability to inhibit the proliferation of human tumour cells (Hela). Hela S3 cells (American Type Culture Collection, Rockville, Md., ATCC), and a Hela cell line (Hela 1 mM) previously selected for resistance to the antitumour agent, hydroxyurea, were tested (see results in Table 11). Two experiments were undertaken with Hela S3 cells. […] The same experiment was repeated with the Hela 1 mM cell line and with varying concentrations of the antisense construct AS-II-336-20 (see results in Table 11) with similar results, […] was an effective concentration for inhibiting colony formation.
To test the antisense effects of many of these sequences as phosphorthioate deoxyribonucleotides, they were examined in relative colony forming experiments conducted as described in Example 16 with a series of human tumour cell lines. The results (shown as % inhibition of colony forming ability) obtained with cancer cells derived from the bladder, breast, lung, colon, pancreas, prostate, liver and cervix, are shown in Table 13. The specific cell lines employed are as follows:
T24=bladder cell carcinoma HCT116=colon cell carcinoma A549=lung cell carcinoma MDA-MB-231=breast cell adenocarcinoma […]=pancreatic cell carcinoma PC-3=prostrate cell adenocarcinoma HepG2=hepatocellular carcinoma HeLaS3=cells isolated from a carcinoma of the cervix T-47D=breast ductal carcinoma H596=lung adenosquamous carcinoma cells Colo320=colon cell adenocarcinoma

[1] = test system: PC-3 prostrate cell adenocarcinoma; assay: Relative colony forming efficiency (Example 17, Table 13); details: averages of 2-8 determinations
How it was run: (§1)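 Phosphorothioate antisense oligodeoxynucleotides, at 0.2 μM unless otherwise indicated, were applied with 2.5 μg DOTMA/DOPE (Lipofectin) for 4 h. Colonies stained with methylene blue and scored, with viability sometimes checked by trypan blue exclusion. Values given as % inhibition of colony formation relative to lipofectin-only controls.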

[2] = test system: T24 bladder cell carcinoma; assay: as above; details: averages of 2-8 determinations
How it was run: as §1

A549 lung cell carcinoma = assay: as above; details: averages of 2-8 determinations
How it was run: as §1

[3] = test system: HepG2 hepatocellular carcinoma; assay: as above; details: averages of 2-8 determinations
How it was run: as §1

[4] = test system: MDA PaCa-2 pancreatic cell carcinoma; assay: as above; details: MIA PaCa-2 pancreatic cell carcinoma; averages of 2-8 determinations
How it was run: as §1

[5] = test system: MDA-MB-231 breast cell adenocarcinoma; assay: as above; details: averages of 2-8 determinations
How it was run: as §1

[6] = test system: HCT116 colon cell carcinoma; assay: as above; details: averages of 2-8 determinations
How it was run: as §1

| Substance | Reduced relative colony forming efficiency, Hela S3 (% inhibition of colony forming ability) (Hela S3 cells) [%] | Reduced relative colony forming efficiency, PC-3 (% inhibition of colony forming ability) [1] [%] | Reduced relative colony forming efficiency, T24 (% inhibition of colony forming ability) [2] [%] | Reduced relative colony forming efficiency, A549 (% inhibition of colony forming ability) (A549 lung cell carcinoma) [%] | Reduced relative colony forming efficiency, HepG2 (% inhibition of colony forming ability) [3] [%] | Reduced relative colony forming efficiency, MIA PaCa-2 (% inhibition of colony forming ability) [4] [%] | Reduced relative colony forming efficiency, MDA-MB-231 (% inhibition of colony forming ability) [5] [%] | Reduced relative colony forming efficiency, HCT116 (% inhibition of colony forming ability) [6] [%] |
| --- | --- | --- | --- | --- | --- | --- | --- | --- |
| GGTTTTCTCTCAGCAGCGGC (antisense dG*dG*dT*dT*dT*dT*dC*dT*dC*dT*dC*dA*dG*dC*dA*dG*dC*dG*dG*dC) [AS-II-404-20] | 58.37 | 77.08 | 84.26 | 52.17 | 84.79 | 17.84 | 85.83 |  |
| AACTTCTTGGCTAAATCGCT (antisense dA*dA*dC*dT*dT*dC*dT*dT*dG*dG*dC*dT*dA*dA*dA*dT*dC*dG*dC*dT) [AS-II-634-20] | 48.94 | 77.86 | 83.52 | 57.76 | 95.78 |  | 92.44 |  |
| GGCATCAGTCCTCGTTTCTT (antisense dG*dG*dC*dA*dT*dC*dA*dG*dT*dC*dC*dT*dC*dG*dT*dT*dT*dC*dT*dT) [AS-II-933-20] | 26.86 | 36.91 | 64.84 | 53.52 |  | 35.68 | 64.39 | 67.24 |
| TCGCTCCACCAAGTTTTCAT (antisense dT*dC*dG*dC*dT*dC*dC*dA*dC*dC*dA*dA*dG*dT*dT*dT*dT*dC*dA*dT) [AS-II-619-20] | 31.22 | 88.01 | 86.3 | 65.67 | 92.02 | 39.83 | 91.08 |  |
| TTAGTCTTTCCTTCCAGTGA (antisense dT*dT*dA*dG*dT*dC*dT*dT*dT*dC*dC*dT*dT*dC*dC*dA*dG*dT*dG*dA) [AS-II-1254-20] | 7.64 | 73.31 | 41.53 | 36.74 | 83.28 | 3.32 |  | 28.54 |
| AS-II-114420 (antisense dG*dT*dA*dT*dT*dG*dC*dT*dT*dC*dA*dT*dT*dA*dG*dA*dG*dT*dG*dC) | 50.57 | 30.21 | 62.9 | 61.81 | 92.17 | 46.39 |  | 54.25 |
| GGAAGATGACAAAGCGGCGG (antisense dG*dG*dA*dA*dG*dA*dT*dG*dA*dC*dA*dA*dA*dG*dC*dG*dG*dC*dG*dG) [AS-II-425-20] | 63.09 | 75.65 | 90.37 | 57.38 | 97.89 | 65.2 | 89.75 |  |
| GCCACAGGATAAAAACACAA (antisense dG*dC*dC*dA*dC*dA*dG*dG*dA*dT*dA*dA*dA*dA*dA*dC*dA*dC*dA*dA) [AS-II-2009-20] |  | 83.36 | 61.84 | 93.32 | 96.99 | 93.74 | 96.25 | 69.92 |
| TGTAAACCCTCATCTCTGCT (antisense dT*dG*dT*dA*dA*dA*dC*dC*dC*dT*dC*dA*dT*dC*dT*dC*dT*dG*dC*dT) [AS-II-981-20] | 69.43 | 85.16 | 86.3 | 74.25 | 95.03 |  | 91.48 | 66.84 |
| GAACATCAGGCAAGCAAAAT (antisense dG*dA*dA*dC*dA*dT*dC*dA*dG*dG*dC*dA*dA*dG*dC*dA*dA*dA*dA*dT) [AS-II-1006-20] | 41.79 | 92.58 | 61.49 | 61.62 | 89.31 | 47.93 |  | 45.56 |
| GCAAAGAAAGCCAGAACATG (antisense dG*dC*dA*dA*dA*dG*dA*dA*dA*dG*dC*dC*dA*dG*dA*dA*dC*dA*dT*dG) [AS-II-579-20] |  | 88.16 | 76.68 | 95.49 | 94.28 | 97.55 | 66.89 | 69.08 |
| ATAAAGTCAAATGGGTTCTC (antisense dA*dT*dA*dA*dA*dG*dT*dC*dA*dA*dA*dT*dG*dG*dG*dT*dT*dC*dT*dC) [AS-II-1224-20] | 14.8 | 80.66 | 38.31 | 55.06 | 76.05 | 17.22 |  | 41.78 |
| GCAAAGGCTACAACACGTTC (antisense dG*dC*dA*dA*dA*dG*dG*dC*dT*dA*dC*dA*dA*dC*dA*dC*dG*dT*dT*dC) [AS-II-861-20] |  | 87.33 | 73.5 | 95.78 | 96.08 | 97.3 | 89.98 | 74.2 |
